In US20220340875A1, “METHODS OF CULTURING AND/OR EXPANDING STEM CELLS AND/OR LINEAGE COMMITTED PROGENITOR CELLS USING AMIDO COMPOUNDS” (IDEAYA BIOSCIENCES, INC., priority 2018, published 2022):

Biological target: T1, hAhR (Homo sapiens, UniProt P35869)
T1 construct: Stably integrated DRE-luciferase cell lines were generated by transducing the both cell lines with Cignal XRE luciferase reporter (Qiagen) lentiviral particles; endogenous in cells
T1 sequence (P35869 11-848): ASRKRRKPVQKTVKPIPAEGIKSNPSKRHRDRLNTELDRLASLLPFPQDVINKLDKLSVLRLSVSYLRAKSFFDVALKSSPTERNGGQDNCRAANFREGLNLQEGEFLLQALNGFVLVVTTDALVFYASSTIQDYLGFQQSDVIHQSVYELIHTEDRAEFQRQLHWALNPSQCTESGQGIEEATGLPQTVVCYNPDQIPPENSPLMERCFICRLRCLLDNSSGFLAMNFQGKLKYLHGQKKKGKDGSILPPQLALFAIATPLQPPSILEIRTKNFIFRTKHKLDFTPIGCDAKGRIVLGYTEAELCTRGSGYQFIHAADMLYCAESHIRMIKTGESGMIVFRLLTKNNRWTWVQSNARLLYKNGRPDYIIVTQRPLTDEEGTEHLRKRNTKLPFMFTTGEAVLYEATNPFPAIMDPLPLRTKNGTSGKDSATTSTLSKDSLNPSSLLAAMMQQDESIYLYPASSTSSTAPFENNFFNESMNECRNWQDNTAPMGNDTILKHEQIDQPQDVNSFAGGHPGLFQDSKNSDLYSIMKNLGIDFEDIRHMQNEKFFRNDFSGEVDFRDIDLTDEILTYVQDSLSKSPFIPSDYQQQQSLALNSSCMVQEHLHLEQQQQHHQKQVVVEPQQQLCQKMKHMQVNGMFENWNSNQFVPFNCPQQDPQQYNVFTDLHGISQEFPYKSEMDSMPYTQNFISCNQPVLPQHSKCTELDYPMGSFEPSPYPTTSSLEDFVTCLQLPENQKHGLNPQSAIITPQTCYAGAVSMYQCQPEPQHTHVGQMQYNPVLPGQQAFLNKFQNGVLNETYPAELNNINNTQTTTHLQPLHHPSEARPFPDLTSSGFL
Assay: AhR DRE-luciferase reporter transcriptional assay, antagonist mode (TCDD-induced)
Assay type: cell-based
Conditions: HEPG2 DRE-Luc cells, 3 nM TCDD, 24 hour incubation, relative IC50
Method in brief: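 HepG2 cells carrying a stably integrated DRE-luciferase reporter, in OptiMEM with 0.5% FBS; semi-log compound doses added with 3 nM TCDD, 24 h incubation, firefly luciferase read-out. Percent maximal activity normalised between vehicle ± TCDD; relative IC50 taken as half-reduction between curve plateaus.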

Row | Compound | IC50 [nM]
1 | Cc1cc(-c2ccc3cncc(Cl)c3n2)ccc1NC(=O)c1ccnn1C [Example 104, N-(4-(8-chloro-1,6-naphthyridin-2-yl)-2-methylphenyl)-1-methyl-1H-pyrazole-5-carboxamide] | < 200
2 | Cc1cc(-c2ccc3cc(C(F)(F)F)ccc3n2)c(C)cc1NC(=O)c1nn(C)cc1C [Example 208, N-(2,5-dimethyl-4-(6-(trifluoromethyl)quinolin-2-yl)phenyl)-1,4-dimethyl-1H-pyrazole-3-carboxamide] | 1000 to 10000
3 | COc1cnccc1C(=O)Nc1ccc(-c2ncc3nc(C(F)(F)F)cc(C)c3n2)cc1C [Example 184, 3-methoxy-N-(2-methyl-4-(8-methyl-6-(trifluoromethyl)pyrido[3,2-d]pyrimidin-2-yl)phenyl)isonicotinamide] | < 200
4 | Cc1cc(C(=O)Nc2ccc(-c3ncc4nc(C(F)(F)F)cc(C)c4n3)cc2F)ccn1 [Example 164, N-(2-fluoro-4-(8-methyl-6-(trifluoromethyl)pyrido[3,2-d]pyrimidin-2-yl)phenyl)-2-methylisonicotinamide] | < 200
5 | Cc1cc(-c2ccc3cccc(C)c3n2)ccc1NC(=O)c1ccnn1C [Example 020, 1-Methyl-N-(2-methyl-4-(8-methylquinolin-2-yl)phenyl)-1H-pyrazole-5-carboxamide] | < 200
6 | Cc1cc(C(F)(F)F)nc2cnc(-c3ccc(NC(=O)C4CCOCC4)c(F)c3)nc12 [Example 186, N-(2-fluoro-4-(8-methyl-6-(trifluoromethyl)pyrido[3,2-d]pyrimidin-2-yl)phenyl)tetrahydro-2H-pyran-4-carboxamide] | 1000 to 10000
7 | Cc1cc(-c2ccc3cnccc3c2)ccc1NC(=O)c1ccnn1C [Example 021, N-(4-(Isoquinolin-6-yl)-2-methylphenyl)-1-methyl-1H-pyrazole-5-carboxamide] | 500 to 1000
8 | Cc1cc(-c2ccc3c(ccn3CC(F)(F)F)c2)ccc1NC(=O)c1ccnn1C [Example 088, 1-methyl-N-(2-methyl-4-(1-(2,2,2-trifluoroethyl)-1H-indol-5-yl)phenyl)-1H-pyrazole-5-carboxamide] | 1000 to 10000
9 | Cc1cc(-c2nc3cc(F)ccc3s2)ccc1NC(=O)c1ccnn1C [Example 099, N-(4-(5-fluorobenzo[d]thiazol-2-yl)-2-methylphenyl)-1-methyl-1H-pyrazole-5-carboxamide] | < 200
10 | Cc1cc(-c2ccc3cc(F)ccc3n2)ccc1NC(=O)c1cnoc1C [Example 038, N-(4-(6-fluoroquinolin-2-yl)-2-methylphenyl)-5-methylisoxazole-4-carboxamide] | 500 to 1000
11 | Cc1cc(-c2ccc3cc(F)ccc3n2)ccc1NC(=O)c1cccnc1 [Example 027, N-(4-(6-fluoroquinolin-2-yl)-2-methylphenyl)nicotinamide] | 500 to 1000
12 | Cc1cc(-c2ccc3ccn(C)c3c2)ccc1NC(=O)c1ccnn1C [Example 082, 1-Methyl-N-(2-methyl-4-(1-methyl-1H-indol-6-yl)phenyl)-1H-pyrazole-5-carboxamide] | 500 to 1000
13 | Cc1cc(-c2ccc3cncc(C)c3n2)ccc1NC(=O)c1ccnn1C [Example 059, 1-methyl-N-(2-methyl-4-(8-methyl-1,6-naphthyridin-2-yl)phenyl)-1H-pyrazole-5-carboxamide] | 200 to 500
14 | Cc1cc(-c2ccc3cc(F)ccc3n2)ccc1NC(=O)c1ccno1 [Example 037, N-(4-(6-fluoroquinolin-2-yl)-2-methylphenyl)isoxazole-5-carboxamide] | 500 to 1000

Next, values leading:

Row | IC50 [nM] | Compound
15 | 200 to 500 | Cc1cc(-c2ccc3ccc(C(F)(F)F)cc3n2)ccc1NC(=O)c1ccnn1C [Example 078, 1-methyl-N-(2-methyl-4-(7-(trifluoromethyl)quinolin-2-yl)phenyl)-1H-pyrazole-5-carboxamide]
16 | < 200 | Cc1cc(-c2ncc3nc(C(F)(F)F)cc(C)c3n2)ccc1N(C)C(=O)c1ccnn1C [Example 148, N,1-Dimethyl-N-(2-methyl-4-(8-methyl-6-(trifluoromethyl)pyrido[3,2-d]pyrimidin-2-yl)phenyl)-1H-pyrazole-5-carboxamide]
17 | < 200 | Cc1cc(-c2nc(N)c3nc(C(F)(F)F)cc(C)c3n2)ccc1NC(=O)c1ccnn1C [Example 153, N-(4-(4-amino-8-methyl-6-(trifluoromethyl)pyrido[3,2-d]pyrimidin-2-yl)-2-methylphenyl)-1-methyl-1H-pyrazole-5-carboxamide]
18 | < 200 | Cc1cc(-c2ncc3cc(C(F)(F)F)ccc3n2)ccc1NC(=O)c1nn(C)cc1C [Example 216, 1,4-dimethyl-N-(2-methyl-4-(6-(trifluoromethyl)quinazolin-2-yl)phenyl)-1H-pyrazole-3-carboxamide]
19 | 200 to 500 | Cc1cc(-c2ccc3cc(C(F)(F)F)ccc3n2)ccc1NC(=O)c1ccnn1C [Example 001, 1-methyl-N-(2-methyl-4-(6-(trifluoromethyl)quinolin-2-yl)phenyl)-1H-pyrazole-5-carboxamide]
20 | < 200 | Cc1cc(C(=O)Nc2ccc(-c3ncc4nc(C(F)(F)F)cc(C)c4n3)cc2C)ccn1 [Example 149, 2-methyl-N-(2-methyl-4-(8-methyl-6-(trifluoromethyl)pyrido[3,2-d]pyrimidin-2-yl)phenyl)isonicotinamide]
21 | < 200 | Cc1cc(N(C)C(=O)c2ccnn2C)ccc1-c1ncc2nc(C(F)(F)F)ccc2n1 [Example 187, N,1-dimethyl-N-(3-methyl-4-(6-(trifluoromethyl)pyrido[3,2-d]pyrimidin-2-yl)phenyl)-1H-pyrazole-5-carboxamide]
22 | 1000 to 10000 | Cc1cc(-c2ccc3c(ccn3CC(F)(F)F)n2)ccc1NC(=O)c1ccnn1C [Example 084, 1-methyl-N-(2-methyl-4-(1-(2,2,2-trifluoroethyl)-1H-pyrrolo[3,2-b]pyridin-5-yl)phenyl)-1H-pyrazole-5-carboxamide]
23 | < 200 | CNC(=O)c1cc(C(=O)N(C)c2ccc(-c3ncc4nc(C(F)(F)F)cc(C)c4n3)cc2C)ccn1 [Example 169, N2,N4-dimethyl-N4-(2-methyl-4-(8-methyl-6-(trifluoromethyl)pyrido-[3,2-d]pyrimidin-2-yl)phenyl)pyridine-2,4-dicarboxamide]
24 | < 200 | Cc1cc(-c2ccc3cc(C(F)(F)F)cc(C)c3n2)ccc1N(C)C(=O)c1ccnn1CCO [Example 201, 1-(2-hydroxyethyl)-N-methyl-N-(2-methyl-4-(8-methyl-6-(trifluoromethyl)-quinolin-2-yl)phenyl)-1H-pyrazole-5-carboxamide]
25 | 1000 to 10000 | Cc1c(-c2ncc3nc(C(F)(F)F)ccc3n2)ccc(N(C)C(=O)c2ccnn2C)c1C [Example 191, N-(2,3-dimethyl-4-(6-(trifluoromethyl)pyrido[3,2-d]pyrimidin-2-yl)phenyl)-N,1-dimethyl-1H-pyrazole-5-carboxamide]
26 | < 200 | Cc1cc(-c2ncc3nc(C(F)(F)F)cc(C)c3n2)ccc1N(C)C(=O)c1ccnn1CC(C)O (centres unmarked) [Example 192, 1-(2-hydroxypropyl)-N-methyl-N-(2-methyl-4-(8-methyl-6-(trifluoromethyl)pyrido[3,2-d]pyrimidin-2-yl)phenyl)-1H-pyrazole-5-carboxamide]
27 | 1000 to 10000 | Cc1cc(-c2ccc3c(C(F)(F)F)cn(C)c3c2)ccc1N(C)C(=O)c1ccnn1C [Example 087, N,1-dimethyl-N-(2-methyl-4-(1-methyl-3-(trifluoromethyl)-1H-indol-6-yl)phenyl)-1H-pyrazole-5-carboxamide]
28 | < 200 | Cc1cc(-c2ncc3cc(F)ccc3n2)ccc1NC(=O)c1ccnn1C [Example 107, N-(4-(6-fluoroquinazolin-2-yl)-2-methylphenyl)-1-methyl-1H-pyrazole-5-carboxamide]
29 | 500 to 1000 | Cc1cc(-c2ccc3cc(F)ccc3n2)cnc1NC(=O)c1ccnn1C [Example 042, N-(5-(6-fluoroquinolin-2-yl)-3-methylpyridin-2-yl)-1-methyl-1H-pyrazole-5-carboxamide]
30 | 200 to 500 | Cc1cc(-c2ncc3cc(C(F)(F)F)ccc3n2)ccc1N(C)C(=O)N(C)C [Example 129, 1,1,3-trimethyl-3-(2-methyl-4-(6-(trifluoromethyl)quinazolin-2-yl)phenyl)urea]
31 | < 200 | Cc1cc(-c2ncc3ccc(C(F)(F)F)cc3n2)ccc1NC(=O)c1ccnn1C [Example 108, 1-methyl-N-(2-methyl-4-(7-(trifluoromethyl)quinazolin-2-yl)phenyl)-1H-pyrazole-5-carboxamide]
32 | < 200 | Cc1cc(-c2ccc3cc(C(F)(F)F)cc(C)c3n2)ccc1NC(=O)c1ccnn1C [Example 203, 1-methyl-N-(2-methyl-4-(8-methyl-6-(trifluoromethyl)quinolin-2-yl)phenyl)-1H-pyrazole-5-carboxamide]
